These results are taken from patent US20060057669A1, “Inactive transcription factor tif-ia and uses thereof” (priority 2002, published 2006).

Assay [1] relates to TIF-IA. In words: Western blot of TIF-IA and Pol I in stimulated NIH3T3 cells. The assay is classed as cell-based. Particulars: 40 μM PD98059, 30 min. On the procedure:
Serum-starved NIH3T3 cells were stimulated for 30 min by 10% serum, 10 ng bFGF, 50 ng/ml EGF or 0.1 μM TPA in the absence or presence of 40 μM PD98059. A Western blot is shown with 50 μg lysate proteins and antibodies against unphosphorylated and phosphorylated ERK1/2 as well as Pol I (RPA116) and TIF-IA.
Similarly, the amount of both Pol I and TIF-IA remained the same in quiescent and serum-stimulated cells. On Western blots, TIF-IA from growing and quiescent cells appears as a closely spaced double-band (indicated by a dot and asterisk in FIG. 1B) that corresponds to differently phosphorylated forms of TIF-IA. After mitogenic stimulation, the faster migrating form was converted into the more slowly migrating TIF-IA moiety. The shift in electrophoretic mobility correlated with cellular pre-rRNA synthetic activity, i.e., was predominant 20-30 min after mitogenic stimulation and returned to normal levels after 2 hr. Activation of pre-rRNA synthesis and decrease in the electrophoretic mobility of TIF-IA was also observed after stimulation of quiescent cells with growth factors, e.g. bFGF, or EGF, or with the phorbol ester TPA (FIGS. 1C and D), a potent stimulus of the Ras-ERK pathway, through activation of protein kinase C.
A general note: In western blotting, separated proteins are transferred to a membrane and probed.

The test system of assay [2] is TIF-IA. Nature of the assay: In vitro transcription assay of TIF-IA purified from treated cells, in nuclear extract from density-arrested FM3A cells. The class given is biochemical. On the procedure:
(A) TIF-IA activity in starved and serum-stimulated cells. The indicated amounts of TIF-IA purified from starved NIH3T3 cells (lanes 2-4) or cells that were stimulated by serum in the absence (lanes 5-7) or presence of PD98059 (lanes 8-10) were assayed for their capability to restore transcription of a nuclear extract from density-arrested FM3A cells (lane 1). The amount and purity of TIF-IA were estimated on silver-stained SDS-polyacrylamide gels (data not shown).
FLAG-tagged TIF-IA was purified from untreated (lanes 2-3) or PD98059-treated HEK293T cells (lanes 4-5). The indicated amounts of TIF-IA were assayed for their capability to restore transcription of a nuclear extract from density-arrested FM3A cells (lane 1). The amount of TIF-IA was estimated on silver-stained SDS-polyacrylamide gels (data not shown).
20 and 40 ng of TIF-IA that was immunopurified from untreated (lanes 2, 3) and rapamycin-treated cells (lanes 4, 5) were added to transcription reactions containing nuclear extracts (30 μg) from density-arrested cells.
Nuclear extracts were prepared from exponentially growing (8×10^5 cells/ml), density-arrested or PD98059-treated (CN Bioscience, Bad Soden, Germany) 40 μM, 0.5 hr) or rapamycin-treated FM3A cells (ATCC, Manassas, USA). […] After incubation for 60 min at 30° C., RNA was extracted and analyzed on non-denaturing 5% polyacrylamide gels […]

With `COc1cccc(-c2cc(=O)c3ccccc3o2)c1N` [PD98059], the “effect on electrophoretic mobility shift of TIF-IA after stimulation” value in the assay on TIF-IA [1] was “prevented the electrophoretic mobility shift of TIF-IA”. In the assay on TIF-IA [1], the “effect on the amount of Pol I and TIF-IA” value was “does not affect the amount of Pol I and TIF-IA”. Moreover, the “transcriptional activity of TIF-IA from treated cells” value was “TIF-IA remained inactive” in the assay on TIF-IA [2] (NIH3T3 cells stimulated with serum in the presence of PD98059) and “transcriptionally inactive” with TIF-IA [2] (unsynchronized cells treated for 30 min with PD98059).
